Measured values from PubChem BioAssay AID1159564 (GlaxoSmithKline (GSK), 2015).
Calls of active or inactive are those of the source. The rule behind the calls is not given here.

Tested on: L. donovani-infected THP-1 macrophages, intracellular amastigote imaging
Experiment: intracellular L. donovani amastigote inhibition, imaging, THP-1 host macrophages, host toxicity (AID 1159564)
[1] = measured here: THP-1 host cell toxicity
[2] = measured here: amastigotes per macrophage

SMILES	IC50	IC50 [1] [µM]	IC50 [2] [µM]
Cc1cc(NC(=O)C2CC2)ccc1OC1CCN(Cc2ccco2)CC1	20 µM	13	13
Cc1cc(Br)sc1CNCCCNc1cc(=O)c2ccccc2[nH]1	25 µM	20	20
Clc1cc(Br)ccc1OCCCCn1ccnc1	25 µM	32	6.3
O=C(NCCc1csc(-c2ccc(F)cc2)n1)c1ccco1	> 50 µM (inactive)	> 50	> 50
CN(CC1CCCO1)S(=O)(=O)c1ccc(C(=O)Nc2nc(-c3ccccn3)cs2)cc1 (stereo not given)	6.3 µM	7.9	3.2
CC(C)Oc1cccc(N2CCC(C(=O)N3CCCN(C(C)C)CC3)CC2)c1	> 50 µM (inactive)	> 50	> 50
O=C1NCc2cccc(Nc3nc(NC4CCC(O)CC4)ncc3Br)c21 (stereo not given)	0.16 µM	0.1	0.13
CNc1c(C(N)=O)c(-c2ccc3scnc3c2)nn1CC(F)(F)F	> 50 µM (inactive)	> 50	> 50
O=c1ccn(-c2ccc([N+](=O)[O-])cc2Cl)c2ccc(F)cc12	> 50 µM (inactive)	> 50	> 50
CNc1cc(Cn2c(C(=O)c3cc(C)cc(Cl)c3)c(C(C)C)c(=O)[nH]c2=O)ccn1	20 µM	> 50	13
COc1ccc(-c2nc3ncccc3o2)cc1NC(=O)c1cccs1	> 50 µM (inactive)	20	> 50
CC(C)S(=O)(=O)c1ccc(-c2cnc(N)c3cc(-c4ccnc(N)n4)ccc23)cc1	1.3 µM	2.5	0.5
O=C(CSc1nnc2ccc(-c3ccc(F)cc3)nn12)N1CCCCC1	> 50 µM (inactive)	6.3	> 50
CCC(=O)Nc1ccc(C(=O)Nc2ccccc2-c2ccccc2)cc1	20 µM	16	25
CC(C)Nc1nccc(-c2c(-c3ccc(F)cc3)ncn2C2CCOCC2)n1	25 µM	> 50	16
CCCCNc1nccc(-c2c(-c3ccc(F)cc3)nn3c(N4CCOCC4)cccc23)n1	6.3 µM	13	> 50
COc1ccc(CNc2nsc3ccccc23)cc1OC	6.3 µM	25	5
c1ccc(-c2nc(NCc3ccco3)c3ccccc3n2)nc1	2.5 µM	32	2.5
Cc1nn(C2CCS(=O)(=O)C2)c(C)c1CN(C)C(=O)C=Cc1sc2ccccc2c1Cl (stereo not given)	40 µM	20	13
Cc1ccc(S(=O)(=O)Nc2ccc(CN3CCN(C(=O)c4cccc(C#N)c4)CC3)cc2)cc1	> 50 µM (inactive)	> 50	25
CS(=O)(=O)c1cccc(-c2cnc(N)c3c(-c4ccc(CO)cc4)csc23)c1	10 µM	> 50	7.9
Cc1nccn1C1CCCN(C(=O)c2cc3c(F)cccc3s2)C1 (stereo not given)	> 50 µM (inactive)	> 50	> 50
Nc1nc(-c2ccccn2)nc(N)c1Cc1c(F)cccc1Cl	1.3 µM	32	1
COc1ccc(Nc2nc(-c3ccccn3)cc(N3CCCC(O)C3)n2)cc1 (stereo not given)	1 µM	25	0.79

SMILES	IC50	IC50 [1] [µM]	IC50 [2] [µM]
COc1ccc(Nc2nc(NC3CCC(O)CC3)ncc2Br)c(C(N)=O)c1 (stereo not given)	1 µM	0.4	0.63
O=C(NCCc1ccccc1Cl)c1cccn1-c1cccnc1	> 50 µM (inactive)	> 50	> 50
Cc1[nH]nc(-c2nc3ccccc3[nH]2)c1C(=O)NC1CCCNC1 (stereo not given)	6.3 µM	1.6	6.3
CNc1nc(C)nc(N2CCc3cc(C(=O)NCc4ccc(-c5nccn5C)cc4Cl)ccc32)n1	0.79 µM	25	0.79
COc1ccc2ncc(Cl)c(CCN3CC[C@H](NCc4cc5c(cn4)OCS5)[C@@H](O)C3)c2n1	1 µM	6.3	0.5
COc1ccc2ncc(F)c(CCN3CC[C@@H](NC(=O)c4cc5c(s4)CCC5)[C@@H](O)C3)c2n1	6.3 µM	25	1.3
CCOc1ccc2nc(NC(=O)c3ccc([N+](=O)[O-])s3)sc2c1	6.3 µM	> 50	5
CC(C)C[C@H](NC(=O)c1csc(-c2cccs2)n1)C(=O)NC1(C#N)CC1	> 50 µM (inactive)	> 50	> 50
O=C(Nc1nc2ccccc2[nH]1)c1ccc2nc[nH]c2c1	5 µM	> 50	3.2
CCCCn1nnnc1CSc1nc(C)cc(C)c1C#N	4 µM	> 50	3.2
COCc1cc(Nc2cccc(Cl)c2)nc(-c2ccccn2)n1	1.6 µM	> 50	0.63
O=C(NC1CCN(C2Cc3ccc(NS(=O)(=O)c4cc(F)cc(F)c4)cc3C2)CC1)C1CC1 (stereo not given)	> 50 µM (inactive)	13	13
N#Cc1ccc(C(=O)Nc2cccc(-c3cccc(CN4CCC(O)CC4)c3)c2)cc1	16 µM	16	7.9
Nc1nccc(-c2csc(Nc3ccc(Cl)cc3)n2)n1	1 µM	> 50	1
COc1ccc(-c2csc(NC(=O)c3ccc([N+](=O)[O-])s3)n2)cc1	4 µM	> 50	1.6
NC(=O)c1ccc(-c2cccc(OCCN3CCN(C4CCCCC4)CC3)c2)cc1	50 µM	32	10
Cc1ccc(NC(=O)c2ccnc(N3CCCC3)c2)cc1-c1ccsc1C(N)=O	> 50 µM (inactive)	> 50	> 50
Cc1nn(-c2nc(N)nc(-c3ccccn3)n2)c(N)c1-c1ccccc1	3.2 µM	20	2
c1ccc2sc(Nc3nc4ncccc4[nH]3)nc2c1	2.5 µM	16	1.3
CCn1c(NC(=O)Cc2ccc(F)cc2)nc2ccccc21	10 µM	> 50	6.3
COc1ccc(CN2CCCCC2c2nc(-c3cccnc3)no2)cc1 (stereo not given)	> 50 µM (inactive)	> 50	> 50
COc1cc(OC)cc(C(=O)N[C@@H](CC(C)C)C(=O)NC2(C#N)CC2)c1	> 50 µM (inactive)	> 50	> 50
O=[N+]([O-])c1cccc(Nc2cncc(-c3ccccc3CO)c2)c1	> 50 µM (inactive)	> 50	> 50
NS(=O)(=O)c1ccc(CNC(=O)c2ccc([N+](=O)[O-])s2)cc1	25 µM	40	13

SMILES	IC50	IC50 [1] [µM]	IC50 [2] [µM]
O=C(Nc1nc2ccccc2[nH]1)c1c(O)c2cccc3c2n(c1=O)CC3	2 µM	> 50	1
Cn1ccnc1CN1CCc2[nH]cnc2C1c1ccccc1OCc1ccccc1 (stereo not given)	> 50 µM (inactive)	> 50	> 50
COc1cc(-c2nc(N3CCOCC3)sc2-c2ccnc(NC3CCOCC3)n2)ccc1Cl	> 50 µM (inactive)	> 50	0.02
CN(C(=O)Nc1ccc2c(c1)CCN(C1CCC1)CC2)c1ccc(C#N)cc1	> 50 µM (inactive)	> 50	> 50
Cc1cc(N(C)C)nc2ccc(Cc3cnc(N)nc3N)cc12	32 µM	40	40
CCOc1ccc(CC(=O)N2c3ccccc3CC2C(=O)NC)cc1 (stereo not given)	> 50 µM (inactive)	> 50	> 50
CCC(=O)Nc1ccc(-c2nc3ccc(Cl)cc3[nH]2)cc1	> 50 µM (inactive)	> 50	> 50
Cc1ccc(-c2csc(NC(=O)C=Cc3ccc(S(=O)(=O)N4CCOCC4)cc3)n2)o1	5 µM	> 50	0.79
O=C(NCC1CCCCC1)c1cnns1	> 50 µM (inactive)	> 50	10
NC(=O)c1cc(F)ccc1Nc1nc(NC2CCC(O)CC2)ncc1Br (stereo not given)	0.79 µM	0.4	0.63
c1ccc(CCNCc2cncc3nc(-c4cnccn4)n(C4CCCCC4)c23)cc1	> 50 µM (inactive)	> 50	> 50
O=C1CN(C2CCCc3c(OCc4ccncc4)cccc32)C(=O)N1C1CCCCC1 (stereo not given)	> 50 µM (inactive)	> 50	> 50
Cc1cc(Oc2cc(Cl)c(Cl)cc2Cl)n2ncnc2n1	16 µM	10	13
Cc1ccc(Nc2nc(-c3ccccn3)cc(N3CCCC(O)C3)n2)cc1 (stereo not given)	0.79 µM	25	0.5
OCC1CCCCN1c1cc(-c2ccccn2)nc(Nc2ccccc2)n1 (stereo not given)	1.3 µM	20	1
CN(C)S(=O)(=O)c1cccc(CSc2nnc(-c3ccc4c(c3)OCO4)o2)c1	2 µM	> 50	0.63
O=C(Nc1ccc(Br)c(Cl)c1)Nc1ccc2c(c1)OCO2	> 50 µM (inactive)	> 50	> 50
CCc1ccccc1[C@@H](C)NC(=O)c1cnc2c(cnn2CC)c1NC1CCN(C(N)=O)CC1	> 50 µM (inactive)	> 50	> 50
O=C(NCC1CCCCC1)c1cc(=O)c2ccccc2o1	16 µM	< 50	6.3
Cc1c(C#N)c([N+](=O)[O-])nn1Cc1cccc(Cl)c1Cl	> 50 µM (inactive)	16	16
CN(Cc1cc2ccccc2s1)c1ncc2c(N)nc(N)nc2n1	32 µM	25	25
CNC(=O)C1Cc2ccccc2N1C(=O)Cc1ccccc1 (stereo not given)	> 50 µM (inactive)	> 50	> 50
